Results from patent US8057800B2, “Immunointeractive molecules and uses thereof” (Circassia Limited, priority 2004, dated 2011).

What was measured:
[1] = system: peanut specific TCL generated using CPE; experiment: CPE driven peanut specific TCL proliferation assay (3H-thymidine); format: cell-based, human; conditions: for responders with a proliferative response to the peptide / proliferative response: CPE driven TCL; for responders with a proliferative response to the peptide: 8 responders; for proliferative response: peptide 10 μg/ml, stimulation index ≧2.5; for subjects responding to the peptide who also had a proliferative response to Ara h 2: subjects with a response to Ara h 2 (19-38) and Ara h 2 (28-47)
Experimental: FIG. 4 is a graphical representation of peanut allergic donor peanut specific TCL proliferative responses to Ara h 2 peptides, Ara h 2 and crude peanut extract. Peanut specific TCL (5×10^4 cells/ml) from individuals with peanut allergy generated using CPE were stimulated with Ara h 2 peptides at a concentration of 10 μg/ml in the presence of autologous irradiated PBMC as APC (5×10^4 cells/ml) in 3 day cultures.
(§1) Freshly harvested or frozen stored PBMC were cultured in 24-well plates (Greiner Biotechnik, Germany) at 2.5×10^6 cells per well (2 ml volume) in complete medium with antigen at an optimised concentration for 7 days at 37° C. in a 5% CO2 humidified incubator. In the case of frozen PBMC the cells were first washed once in wash medium, 1 in 10 dilution of PBMC to medium, and pelleted at 329×g for 10 minutes to remove DMSO. At day 7 cells were washed once and resuspended at 1 to 1.5×10^6/ml and added together with 1×10^6/ml washed irradiated (3000 rads; Gammacell 1000 Elite, Nordion International, Inc.) autologous PBMC (from liquid nitrogen stocks) and antigen into fresh 24-well plates. At day 2 following restimulation, 25 U/ml of recombinant human interleukin-2 (rIL-2) was added and at day 4, 1 ml of culture medium was removed and replaced with fresh medium and 25 U/ml rIL-2. For some experiments due to low cell numbers at 2 weeks, 3 week TCLs were generated by restimulation with antigen and rIL-2 as above for a further week. In all experiments T cells were rested for 6 to 7 days after the last addition of antigen and APC.
(§2) 5.0×10^4/well TCL cells were cultured in triplicate in 96-well U bottom plates (Linbro ICN Biomedicals, USA) with antigen or medium alone and rIL-2 as negative and positive controls respectively, in the presence of autologous irradiated (3000 rads) PBMC (5.0×10^4/well). Cultures were incubated for 3 days. In the last 16 hours of culture, wells were pulsed with ^3H-thymidine (1 μCi/well), then harvested onto printed glass fibre filters with a 96-well automatic cell harvester. ^3H-thymidine incorporation was measured by liquid scintillation spectroscopy.
To determine the T cell epitopes of Ara h 2, oligoclonal CPE-specific TCL were generated from PBMC of 21 peanut-allergic donors and 5 non-peanut allergic donors, and stimulated with a nested set of synthetic peptides spanning the entire Ara h 2 sequence (FIG. 1). A peptide concentration of 10 μg/ml was determined to be the optimal stimulating concentration within proliferation assays. Optimisation included assays at both 10 μg/ml and 30 μg/ml. […] In this setting, and because of the limited availability of donor cells and the cost of commercially prepared peptides, the lower concentration was used.
Several approaches to the production of TCL were used, including stimulation of cells with two and three pulses of CPE separated by 7 days each, two pulses of CPE with a third pulse of rAra h 2, again separated by 7 days each, and three stimulations with rAra h 2. Responses by TCL receiving two CPE stimulations were in general lower than those receiving three stimulations, such that it was felt the sensitivity of the assay may be compromised. […] This lead to the use of TCL stimulated with 3 pulses of CPE, each separated by 7 days for all subjects tested.

[2] = system: peanut specific TCL generated using CPE and rAra h 2; experiment: rAra h 2 pulsed peanut specific TCL proliferation assay (3H-thymidine); format: cell-based, human
Experimental: FIG. 5 is a graphical representation of peanut allergic donor peanut specific Ara h 2 pulsed TCL proliferative responses Ara h 2 peptides, Ara h 2 and crude peanut extract. Peanut specific TCL (5×10^4 cells/ml) from individuals with peanut allergy were generated using CPE and rAra h 2, then stimulated with Ara h 2 peptides at a concentration of […] in the presence of autologous irradiated PBMC as APC (5×10^4 cells/ml) in 3 day cultures.
as §1
as §2, with “Cultures were incubated for 3 days.” left out, “spectroscopy. […]” for “spectroscopy.”

[3] = system: peanut specific TCL generated using CPE; experiment: Cytokine ELISA (IL-5, IFN-γ) of CPE driven TCL supernatants; format: cell-based, human; conditions: for IL-5 production: 48 hours
Experimental: FIG. 7 is a graphical representation of peanut allergic donor peanut specific Ara h 2 pulsed TCL cytokine responses to Ara h 2 peptides, Ara h 2 and crude peanut extract. Peanut specific TCLs (5×10^4/ml) from individuals with peanut allergy were generated using CPE, then stimulated with Ara h 2 peptides at a concentration of 10 ug/ml in the presence of autologous irradiated PBMC as APC (5×10^4/ml) in 3 day cultures. Cytokine supernatants were collected after 48 hours culture and assayed by specific ELISA. […] Peptides associated with a significant proliferative response are shaded grey.
Supernatants (70-75 μl/well of triplicate cultures) were harvested and pooled from T cell proliferation assay cultures at 48 hours (IL-5, IFN-γ) and frozen at −80° C. Harvested supernatants were replaced with warm (37° C.) complete medium and cells subsequently pulsed and harvested as described previously.
IL-5 and IFN-γ levels in culture supernatants were measured by sandwich ELISA. White Costar (Corning, USA) ELISA plates were coated with capture mAb (IL-5 and IFN-γ, 2 μg/ml; 30 μl/well) diluted in binding buffer overnight at 4° C. Plates were then washed three times in PBS/0.05% Tween (wash buffer) and wells blocked with 100 μl/well of 1% BSA/PBS (blocking buffer) for 1 hour at room temperature. Following three washes in wash buffer, 30 μl/well of serial dilutions of recombinant human IL-5 or IFN-γ (5000-0.15 pg/ml) in blocking buffer-0.05% Tween or culture supernatants were added and incubated overnight at 4° C. Following four washes in wash buffer, plates were incubated with biotinylated detection mAb (IL-5, 1 μg/ml; IFN-γ, 0.5 μg/ml; 50 μl/well) diluted in blocking buffer for 1 hour at room temperature. Plates were then washed 6 times in wash buffer and incubated with a 1 in 2000 dilution of streptavidin-peroxidase (50 μl/well) in blocking buffer for 45 minutes at room temperature. Following 8 washes in wash buffer, 100 μl/well of freshly prepared chemiluminescent substrate (Perkin-Elmer, USA) was used and plates read in a Lumicount microplate glow luminometer (Packard Instrument Company, USA), 0.5 seconds/well, automatic sensitivity setting. Standard curve construction and determination of unknown cytokine levels was performed using Packard Instruments software. IL-5 and IFN-γ ELISA sensitivities were 2 pg/ml and 4 pg/ml, respectively.
To identify the phenotype of T cells associated with a peptide proliferative response, supernatants were collected from TCL cultures 48 hours after stimulation with peptides and assayed for the presence of IL-5 and IFN-γ. For each donor, peptides associated with a proliferative response and two peptides not associated with a proliferative response were tested. […] In general, cytokine responses were at the lower limits of detection. […]

specific IgE = conditions: cited from earlier work
serum IgE = experiment: Western blot of CPE for serum IgE reactivity to Ara h 2; format: binding, human; conditions: western blotting of CPE
Description: Following resolution of CPE on a 14% polyacrylamide gel, proteins were transferred to nitrocellulose and probed with sera from the study population, and non-peanut allergic controls. IgE was detected using HRP conjugated mouse anti-human IgE and enhanced chemiluminescence.
SDS-PAGE gels were assembled into stacks in transfer buffer as follows: blotting paper, nitrocellulose membrane, gel and blotting paper. Sample proteins and pre-stained molecular weight markers were electrophoretically transferred from SDS-PAGE gels to nitrocellulose at 30 volts for 3 hours in an Xcell II blot module (Novex, USA). Following transfer, the nitrocellulose membrane was stained with Ponceau S to ensure adequate protein transfer, then cut into strips and blocked by incubation with 10% milk powder-PBS for 1 hour at room temperature. The blocked nitrocellulose membrane was then washed in PBS and incubated with sample sera diluted 1 in 5 with 1% milk powder-PBS-Tween for all proteins except for Ara h 1, whereupon a 1 in 10 serum dilution was used. Incubation took place overnight, following which the blot was washed 3 times in PBS-Tween, 5 minutes/wash. […] The nitrocellulose was then photographed and analysed using Labworks image acquisition software (UVP Laboratory Products, UK). […]

With “PYDRRGAGSSQHQERCCNEL (Peanut Ara h 2) [Ara h 2 (73-92), Ara h 2 20-mer peptide, residues 73-92]” the “responders with a proliferative response to the peptide” value [1] was 3 of the 8 and the “pattern of reactivity of subject 6” value ([2]; subject 6, rAra h 2 pulsed TCL) was “did not include”.

With “RCMCEALQQIMENQSDRLQG (Peanut Ara h 2) [Ara h 2 (100-119), Ara h 2 20-mer peptide, residues 100-119]” the proliferative response [1] was “inducing proliferative responses”.

In the case of “RQQWELQGDRRCQSQLERAN (Peanut Ara h 2) [Ara h 2 (19-38), Ara h 2 20-mer peptide, residues 19-38]”, the “responders with a proliferative response to the peptide” value [1] is reported as 3 of the 8, the “subjects demonstrating their greatest response to this peptide” value ([1]; response magnitude ranked for each subject) is reported as 3 and the “subjects responding to the peptide who also had a proliferative response to Ara h 2” value [1] is reported as 60%. The IL-5/IFN-γ ratio ([3]; subject 10, CPE driven TCL) was about 7, the IL-5 production ([3]; subject 10, CPE driven TCL) was 540 pg/mL and the IL-5/IFN-γ ratio ([3]; subject 21, CPE driven TCL) was “approximately 20”. The IL-5 production ([3]; subject 21, CPE driven TCL) was 2054 pg/mL, the “reactivity of subject 10” value ([2]; subject 10, both types of TCL preparation) was “reacted” and the “magnitude of response relative to other peptides” value ([2]; subject 10, rAra h 2 pulsed TCL) was “less than that generated by stimulation with Ara h 2 (37-56) and Ara h 2 (46-65)”.

In the case of “RRCQSQLERANLRPCEQHLM (Peanut Ara h 2) [Ara h 2 (28-47), Ara h 2 20-mer peptide, residues 28-47]”, the proliferative response [1] is reported as “inducing proliferative responses” and the “subjects responding to the peptide who also had a proliferative response to Ara h 2” value [1] is reported as 60%.

B1: Ara h 2: major peanut allergen, a glycoprotein of the conglutin seed storage family (protein)
chain: LTILVALALFLLAAHASARQQWELQGDRRCQSQLERANLRPCEQHLMQKIQRDEDSYERDPYSPSQDPYSPSPYDRRGAGSSQHQERCCNELNEFENNQRCMCEALQQIMENQSDRLQGRQQEQQFKRELRNLPQQCGLRAPQRCDLDVESGGRDRY
modifications: Peanut Ara h 2
notes: major peanut allergen, a glycoprotein of the conglutin seed storage family
For B1, the “sera reactive with Ara h 2” value (specific IgE; Burks et al, 1992) is listed as 6 out of 6, the “subjects with specific IgE to purified natural Ara h 2” value (specific IgE; de Jong et al. 1998) is listed as “approximately 78%” and the “subjects possessing specific IgE to Ara h 2” value (specific IgE; western blotting of crude peanut extract, Clarke et al. 1998) is listed as 71%. For the same molecule, the “subjects possessing IgE towards the recombinant form” value (specific IgE; western blotting, Kleber-Janke et al. 1999) was 85%, the “peanut allergic subjects possessing IgE reactive to Ara h 2 doublet” value (serum IgE; 22 peanut allergic subjects) was 20 out of the 22 and the “IgE binding to Ara h 2 in non-peanut allergic controls” value (serum IgE; non-peanut allergic controls) was “weak and potentially non-specific”.
